Test results: patent publication US9302999B2, “Substituted triazoles as herbicides” (E. I. DU PONT DE NEMOURS AND COMPANY, priority 2012, dated 2016)

Key:
Assay type in all cases: in vivo
[1] = test system: barnyardgrass (Echinochloa crus-galli); assay: Test A pre-/postemergence: barnyardgrass; settings: for Barnyardgrass plant response rating: Postemergence; for Plant response rating, Barnyardgrass: Preemergence
Summary of the method: (§1)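 Soil medium was loam blended with sand; treatments pre- and postemergence were applied concurrently, postemergence at one- to two-leaf stage. Approximately ten days in greenhouse preceded visual comparison with untreated controls, scored 0 (no effect) to 100 (complete control).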

[2] = test system: foxtail, giant (giant foxtail, Setaria faberii); assay: Test A pre-/postemergence: foxtail, giant; settings: for Foxtail, Giant plant response rating: Postemergence; for Plant response rating, Foxtail, Giant: Preemergence
Summary of the method: as §1

[3] = test system: morningglory (Ipomoea spp.); assay: Test A pre-/postemergence: morningglory; settings: for Morningglory plant response rating: visual rating on 0 to 100 scale (0 no effect, 100 complete control), approximately ten days
Summary of the method: as §1

[4] = test system: pigweed (Amaranthus retroflexus); assay: Test A pre-/postemergence: pigweed; settings: for Pigweed plant response rating: visual rating on 0 to 100 scale (0 no effect, 100 complete control), approximately ten days
Summary of the method: as §1

[5] = test system: wheat (Triticum aestivum); assay: Test A pre-/postemergence: wheat; settings: for Wheat plant response rating: visual rating on 0 to 100 scale (0 no effect, 100 complete control), approximately ten days
Summary of the method: as §1

[6] = test system: winter wheat (Triticum aestivum); assay: Test C pre-/postemergence: winter wheat
Summary of the method: (§2)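 Visual injury scored 0–100 (100 = complete control) against untreated controls after 13–15 greenhouse days. Surfactant-containing solvent formulations applied either to soil after sowing (loam/sand) or over 1- to 4-leaf plants, 2–18 cm tall.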

corn (Zea mays) = assay: Test C pre-/postemergence: corn
Summary of the method: as §2

[7] = test system: johnsongrass (Sorghum halepense); assay: Test C pre-/postemergence: johnsongrass
Summary of the method: as §2

[8] = test system: morningglory (Ipomoea coccinea); assay: Test C pre-/postemergence: morningglory
Summary of the method: as §2

[9] = test system: nutsedge, yellow (yellow nutsedge, Cyperus esculentus); assay: Test C pre-/postemergence: nutsedge, yellow
Summary of the method: as §2

[10] = test system: velvetleaf (Abutilon theophrasti); assay: Test C pre-/postemergence: velvetleaf
Summary of the method: as §2

[11] = test system: chickweed (common chickweed, Stellaria media); assay: Test C postemergence: chickweed
Summary of the method: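 Response values are visual ratings, 0 (no effect) to 100 (complete control), made by comparison with untreated controls 13 to 15 days after postemergence treatment of greenhouse-grown potted plants that were 2 to 18 cm high at spraying.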

[12] = 125 g ai/ha, 0 to 100 scale, 0 is no effect, 100 is complete control
[13] = 500 g ai/ha, visual rating on 0 to 100 scale (0 no effect, 100 complete control), approximately ten days
[14] = 125 g ai/ha, 0 to 100 scale where 0 is no effect and 100 is complete control
[15] = 500 g ai/ha, 0 to 100 scale (0 no effect, 100 complete control)
[16] = Postemergence, 125 g ai/ha, 0 to 100 scale, 0 is no effect, 100 is complete control
[17] = Preemergence, 125 g ai/ha, 0 to 100 scale where 0 is no effect and 100 is complete control
[18] = Preemergence, 500 g ai/ha, 0 to 100 scale (0 no effect, 100 complete control)
[19] = Postemergence, 31 g ai/ha, scale 0 to 100 (0 no effect, 100 complete control)
[20] = Postemergence, 62 g ai/ha, scale 0 to 100 (0 no effect, 100 complete control)
[21] = Postemergence, 125 g ai/ha, scale 0 to 100, 0 no effect, 100 complete control
[22] = Postemergence, 250 g ai/ha, scale 0 to 100
[23] = Preemergence, 62 g ai/ha, scale of 0 to 100, 0 is no effect, 100 is complete control
[24] = Preemergence, 125 g ai/ha, scale 0 to 100, 0 no effect, 100 complete control
[25] = Preemergence, 250 g ai/ha, scale 0 to 100, 0 no effect, 100 complete control
[26] = Preemergence, 31 g ai/ha, scale of 0 to 100, 0 is no effect, 100 is complete control
[27] = 31 g ai/ha, scale 0 to 100 (0 no effect, 100 complete control)
[28] = 62 g ai/ha, scale 0 to 100 (0 no effect, 100 complete control)
[29] = 125 g ai/ha, scale 0 to 100, 0 no effect, 100 complete control

In the case of `Fc1ccc(-n2nc(Cc3ccnc(C(F)(F)F)c3)c(OCC(F)(F)F)n2)cc1` [Compound 142], the “Barnyardgrass plant response rating” value [1, 12] is reported as 100, the “Barnyardgrass plant response rating” value [1, 13] is reported as 100 and the “Plant response rating, Barnyardgrass” value [1, 14] is reported as 100. The “Plant response rating, Barnyardgrass” value [1, 15] was 100, the “Foxtail, Giant plant response rating” value [2, 12] was 100 and the “Foxtail, Giant plant response rating” value [2, 13] was 100. The “Plant response rating, Foxtail, Giant” value [2, 14] was 100, the “Plant response rating, Foxtail, Giant” value [2, 15] was 100 and the “Plant response rating, Morningglory” value [3, 16] was 100. For the same molecule, the “Morningglory plant response rating” value ([3]; Postemergence, 500 g ai/ha) was 100, the “Plant response rating, Morningglory” value [3, 17] was 50 and the “Plant response rating, Morningglory” value [3, 18] was 80. For the same molecule, the “Plant response rating, Pigweed” value [4, 16] was 100, the “Pigweed plant response rating” value ([4]; Postemergence, 500 g ai/ha) was 100 and the “Plant response rating, Pigweed” value [4, 17] was 100. The “Plant response rating, Pigweed” value [4, 18] was 100, the “Plant response rating, Wheat” value [5, 16] was 80 and the “Wheat plant response rating” value ([5]; Postemergence, 500 g ai/ha) was 80. For the same molecule, the “Plant response rating, Wheat” value [5, 17] was 70, the “Plant response rating, Wheat” value [5, 18] was 80 and the “Plant response rating, Wheat” value [6, 19] was 15. The “Plant response rating, Wheat” value [6, 20] was 25, the “Plant response rating, Wheat” value [6, 21] was 40 and the “Plant response rating, Wheat” value [6, 22] was 45. For the same molecule, the “Plant response rating, Wheat” value [6, 23] was 5, the “Plant response rating, Wheat” value [6, 24] was 35 and the “Plant response rating, Wheat” value [6, 25] was 50. The “Plant response rating, Corn” value (corn (Zea mays); [19]) was 30, the “Plant response rating, Corn” value (corn (Zea mays); [20]) was 35 and the “Plant response rating, Corn” value (corn (Zea mays); [21]) was 35. For the same molecule, the “Plant response rating, Corn” value (corn (Zea mays); [22]) was 45, the “Plant response rating, Corn” value (corn (Zea mays); [26]) was 0 and the “Plant response rating, Corn” value (corn (Zea mays); [23]) was 5. The “Plant response rating, Corn” value (corn (Zea mays); [24]) was 20, the “Plant response rating, Corn” value (corn (Zea mays); [25]) was 30 and the “Plant response rating, Johnsongrass” value [7, 19] was 55. The “Plant response rating, Johnsongrass” value [7, 20] was 70, the “Plant response rating, Johnsongrass” value [7, 21] was 80 and the “Plant response rating, Johnsongrass” value [7, 22] was 80. The “Plant response rating, Johnsongrass” value [7, 26] was 90, the “Plant response rating, Johnsongrass” value [7, 23] was 98 and the “Plant response rating, Johnsongrass” value [7, 24] was 100. For the same molecule, the “Plant response rating, Johnsongrass” value [7, 25] was 100, the “Plant response rating, Morningglory” value [8, 19] was 60 and the “Plant response rating, Morningglory” value [8, 21] was 60. The “Plant response rating, Morningglory” value [8, 22] was 80, the “Plant response rating, Morningglory” value [8, 23] was 35 and the “Plant response rating, Nutsedge, Yellow” value [9, 19] was 5. For the same molecule, the “Plant response rating, Nutsedge, Yellow” value [9, 20] was 5, the “Plant response rating, Nutsedge, Yellow” value [9, 21] was 15 and the “Plant response rating, Nutsedge, Yellow” value [9, 22] was 20. The “Plant response rating, Nutsedge, Yellow” value [9, 26] was 0, the “Plant response rating, Nutsedge, Yellow” value [9, 24] was 0 and the “Plant response rating, Nutsedge, Yellow” value [9, 25] was 0. For the same molecule, the “Plant response rating, Velvetleaf” value [10, 19] was 30, the “Plant response rating, Velvetleaf” value [10, 20] was 50 and the “Plant response rating, Velvetleaf” value [10, 21] was 55. For the same molecule, the “Plant response rating, Velvetleaf” value [10, 22] was 75, the “Plant response rating, Velvetleaf” value [10, 26] was 35 and the “Plant response rating, Velvetleaf” value [10, 23] was 75. The “Plant response rating, Velvetleaf” value [10, 24] was 80, the “Plant response rating, Velvetleaf” value [10, 25] was 100 and the “Plant response rating, Chickweed” value [11, 27] was 85. For the same molecule, the “Plant response rating, Chickweed” value [11, 28] was 98, the “Plant response rating, Chickweed” value [11, 29] was 98 and the “Plant response rating, Chickweed” value ([11]; 250 g ai/ha, scale 0 to 100) was 98.
`Cc1nn(-c2ccc(F)c(F)c2)nc1Oc1ccnc(C(F)(F)F)c1` [Compound 145] was tested, and the “Barnyardgrass plant response rating” value [1, 12] was 80, the “Barnyardgrass plant response rating” value [1, 13] was 90 and the “Plant response rating, Barnyardgrass” value [1, 14] was 100. The “Plant response rating, Barnyardgrass” value [1, 15] was 100, the “Foxtail, Giant plant response rating” value [2, 12] was 90 and the “Foxtail, Giant plant response rating” value [2, 13] was 100. For the same molecule, the “Plant response rating, Foxtail, Giant” value [2, 14] was 100, the “Plant response rating, Foxtail, Giant” value [2, 15] was 100 and the “Plant response rating, Morningglory” value [3, 16] was 100. The “Morningglory plant response rating” value ([3]; Postemergence, 500 g ai/ha) was 100, the “Plant response rating, Morningglory” value [3, 17] was 10 and the “Plant response rating, Morningglory” value [3, 18] was 60. The “Plant response rating, Pigweed” value [4, 16] was 100, the “Pigweed plant response rating” value ([4]; Postemergence, 500 g ai/ha) was 100 and the “Plant response rating, Pigweed” value [4, 17] was 100. For the same molecule, the “Plant response rating, Pigweed” value [4, 18] was 100, the “Plant response rating, Wheat” value [5, 16] was 20 and the “Wheat plant response rating” value ([5]; Postemergence, 500 g ai/ha) was 50. The “Plant response rating, Wheat” value [5, 17] was 20, the “Plant response rating, Wheat” value [5, 18] was 60 and the “Plant response rating, Wheat” value [6, 19] was 5. The “Plant response rating, Wheat” value [6, 20] was 15, the “Plant response rating, Wheat” value [6, 21] was 30 and the “Plant response rating, Wheat” value [6, 22] was 40. The “Plant response rating, Wheat” value [6, 23] was 5, the “Plant response rating, Wheat” value [6, 24] was 5 and the “Plant response rating, Wheat” value [6, 25] was 50. For the same molecule, the “Plant response rating, Corn” value (corn (Zea mays); [19]) was 35, the “Plant response rating, Corn” value (corn (Zea mays); [20]) was 45 and the “Plant response rating, Corn” value (corn (Zea mays); [22]) was 50. The “Plant response rating, Corn” value (corn (Zea mays); [26]) was 0, the “Plant response rating, Corn” value (corn (Zea mays); [23]) was 10 and the “Plant response rating, Corn” value (corn (Zea mays); [24]) was 25. For the same molecule, the “Plant response rating, Corn” value (corn (Zea mays); [25]) was 60, the “Plant response rating, Johnsongrass” value [7, 19] was 10 and the “Plant response rating, Johnsongrass” value [7, 20] was 20. For the same molecule, the “Plant response rating, Johnsongrass” value [7, 21] was 70, the “Plant response rating, Johnsongrass” value [7, 22] was 75 and the “Plant response rating, Johnsongrass” value [7, 26] was 0. The “Plant response rating, Johnsongrass” value [7, 23] was 35, the “Plant response rating, Johnsongrass” value [7, 24] was 100 and the “Plant response rating, Johnsongrass” value [7, 25] was 100. The “Plant response rating, Morningglory” value [8, 19] was 90, the “Plant response rating, Morningglory” value [8, 20] was 90 and the “Plant response rating, Morningglory” value [8, 21] was 95. The “Plant response rating, Morningglory” value [8, 22] was 98, the “Plant response rating, Morningglory” value [8, 26] was 15 and the “Plant response rating, Morningglory” value [8, 23] was 20. The “Plant response rating, Morningglory” value [8, 24] was 70, the “Plant response rating, Morningglory” value [8, 25] was 85 and the “Plant response rating, Nutsedge, Yellow” value [9, 19] was 5. The “Plant response rating, Nutsedge, Yellow” value [9, 20] was 10, the “Plant response rating, Nutsedge, Yellow” value [9, 21] was 15 and the “Plant response rating, Nutsedge, Yellow” value [9, 22] was 15. The “Plant response rating, Nutsedge, Yellow” value [9, 24] was 5, the “Plant response rating, Nutsedge, Yellow” value [9, 25] was 10 and the “Plant response rating, Velvetleaf” value [10, 19] was 35. For the same molecule, the “Plant response rating, Velvetleaf” value [10, 20] was 35, the “Plant response rating, Velvetleaf” value [10, 21] was 50 and the “Plant response rating, Velvetleaf” value [10, 22] was 60. For the same molecule, the “Plant response rating, Velvetleaf” value [10, 26] was 0, the “Plant response rating, Velvetleaf” value [10, 23] was 10 and the “Plant response rating, Velvetleaf” value [10, 24] was 75. The “Plant response rating, Velvetleaf” value [10, 25] was 85, the “Plant response rating, Chickweed” value [11, 27] was 75 and the “Plant response rating, Chickweed” value [11, 28] was 85. The “Plant response rating, Chickweed” value [11, 29] was 98 and the “Plant response rating, Chickweed” value ([11]; 250 g ai/ha, scale 0 to 100) was 100.
